c1ccc(CSSCc2ccccc2)cc1
Conditions | solubility (mole fraction)
in chloroform, 284.95 K | 0.102
in chloroform, 288.75 K | 0.131
in chloroform, 292.75 K | 0.16
in chloroform, 298.65 K | 0.208
in chloroform, 302.6 K | 0.246
in chloroform, 308.15 K | 0.291
in ethanol, 284.7 K | 0.000168
in ethanol, 289.45 K | 0.000398
in ethanol, 294.45 K | 0.000905
in ethanol, 299.55 K | 0.0019
in ethanol, 303.25 K | 0.00301
in ethanol, 308.25 K | 0.00524
in ethyl acetate, 285.55 K | 0.0332
in ethyl acetate, 289.95 K | 0.05
in ethyl acetate, 293.65 K | 0.0667
in ethyl acetate, 298.8 K | 0.0963
in ethyl acetate, 303.65 K | 0.131
in ethyl acetate, 308.4 K | 0.164
in n-hexane, 284.25 K | 0.000922
in n-hexane, 288.35 K | 0.0019
in n-hexane, 294.45 K | 0.00448
in n-hexane, 298.25 K | 0.00739
in n-hexane, 303.65 K | 0.0137
in n-hexane, 309.05 K | 0.0223
in toluene, 283.45 K | 0.0521
in toluene, 288.16 K | 0.0769
in toluene, 292.65 K | 0.103
in toluene, 299.35 K | 0.162
in toluene, 303.15 K | 0.198
in toluene, 308.65 K | 0.248

Reference: BigSolDB 2.1
